The subject of assay [1] is anti-OVA-IgE antibody production. Nature of the assay: Suppressive effect on mouse in vivo anti-OVA-IgE antibody production. The settings on record: po, 336 h, BALB/c mice immunized with OVA on aluminium hydroxide gel, 100 mg/kg orally once a day for 5 days, serum on day 14, PCA reaction in Wistar rats, read-out: Suppressive rate for IgE antibody production (%). The protocol: BALB/c mice, female, 7 weeks old, 7 mice in a group, and 9-11 mice in control group, were used for tests.
Suppressive effect of the compound of the present invention on IgE antibody production was evaluated according to a method described in the reference, Levin and Vaz, International Archives of Allergy and Applied Immunology, 39: 156, 1970. Immunization was performed by intraperitoneally administering aluminium hydroxide gel (4 mg, PIERCE Inc.) adsorbed with egg albumin (OVA; Sigma Inc.) 10 μg in mice. Test compounds were suspended or dissolved in water containing 0.5% carboxymethyl cellulose, and administered orally to test animals, 100 mg/kg, immediately after immunization, once a day for 5 days. Water containing 0.5% carboxymethyl cellulose without addition of test compound was administered to the control group.
On day 14 after the immunization, blood was collected, and passive cutaneous anaphylaxis (PCA) reaction was performed according to the method described in the reference, Ovary et al. International Archives of Allergy and Applied Immunology, 48: 16, 1975, to determine the antibody production. Serum 0.1 ml, which was serially twofold diluted with physiological saline, was injected intracutaneously in the back of Wistar rats, male, 8 weeks old. After 24 hours, 0.5% Evans blue physiological saline solution, which contains OVA 2 mg, 1 ml was injected intravenously to determine the serum boundary concentration of pigment infiltration.
Suppressive rate for IgE antibody production is determined by the following equation.
Suppressive rate for IgE antibody production (%) [formula]

Assay [2] has as its system immediate type allergic foot-pad reaction. Description: Suppression of mouse in vivo foot-pad reaction. The conditions noted are these: BALB/c mice immunized by egg albumin; oral 3-100 mg/kg once a day for 5 days; compared with the positive control. On the procedure:
BALB/c mice, female, 7 weeks old, 5 mice in a group for test group and 12-14 mice for control group were used for tests.
Effect of the compounds of the present invention on suppression of mouse in vivo foot-pad reaction is evaluated by the following method.
Mice were immunized by administering intraperitoneally 4 mg of aluminium hydroxide gel, which was adsorbed with OVA 5 μg. Test compounds were suspended or dissolved in water containing 0.5% carboxymethyl cellulose, and were administered to test animals orally at 3-100 mg/kg, once a day, for 5 days, from immediately after immunization. For control groups, water containing 0.5% carboxymethyl cellulose without addition of the test compound was administered.
After 10 days of immunization, OVA 10 μg was injected into the hindlim pads of mice to induce immediate type allergic foot-pad reaction. Control groups were divided into tow groups. The one was injected OVA to induce allergic foot-pad reaction for positive control, and the other was injected physiological saline for negative control. After 30 minutes, foot-pad volume of hidlimb of mice was measured by using Plethysmometer (Unicom Co.) to determine increased rate for comparison before induction of foot-pad reaction.
Suppressive rate for foot-pad reaction is obtained by the following equation.
Suppressive rate for foot-pad reaction (%) [formula]
A: increased rate of foot-pad reaction in positive control group,
B: increased rate of foot-pad reaction in negative control group,
C: increased rate of foot-pad reaction in test group (test compound administered group).

Consider `CCCCOc1ccc(CCC(=O)O)cc1-c1ccccc1` [Compound(01), 3-(2-butoxy-1,1′-biphenyl-5-yl)propionic acid], for which, in assay [1], the inhibition in vivo at 100 mg/kg was 72.3%.

Consider `CCCCCOc1ccc(CCC(=O)O)cc1-c1ccccc1` [Compound(03), 3-(2-pentyloxy-1,1′-biphenyl-5-yl)propionic Acid], for which the inhibition in vivo at 100 mg/kg in assay [1] came out at 50.9%. Turning to `O=C(O)CCc1ccc(OC2CCCC2)c(-c2ccccc2)c1` [Compound(04), 3-(2-cyclopentyloxy-1,1′-biphenyl-5-yl)propionic Acid], in assay [1], the inhibition in vivo at 100 mg/kg amounted to 45.5%. The “suppressive action against immediate type allergic foot-pad reaction” value (“suppressive action” below) in assay [2] is given as “significant suppressive action”.

For the compound `O=C(O)CCc1ccc(OCC2CCCCC2)c(-c2ccccc2)c1` [Compound(07), 3-(2-cyclohexylmethyloxy-1,1′-biphenyl-5-yl)propionic Acid], in assay [1], the inhibition in vivo at 100 mg/kg is 62%. Further, the “suppressive action” value in assay [2] is “significant suppressive action”. Take `CCC(O)COc1ccc(CCC(=O)O)cc1-c1ccccc1` (centres unmarked) [Compound(08), 3-[2-(2-hydroxybutyloxy)-1,1′-biphenyl-5-yl]propionic acid]: in assay [1], the inhibition in vivo at 100 mg/kg was 58.9%. As to `O=C(O)CCc1ccc(OCC(=O)O)c(-c2ccccc2)c1` [Compound(12), 3-(2-carboxymethyloxy-1,1′-biphenyl-5-yl)propionic acid], the inhibition in vivo at 100 mg/kg in assay [1] is 50.8%. Consider `CCCCOc1c(NC(C)=O)cc(CCC(=O)O)cc1-c1ccccc1` [Compound(15), 3-(3-acetylamino-2-butoxy-1,1′-biphenyl-5-yl)propionic Acid], for which the inhibition in vivo at 100 mg/kg in assay [1] was 64.2%. Take `NC(=O)Nc1cc(CCC(=O)O)cc(-c2ccccc2)c1OCC1CCCCC1` [Compound(22), 3-(3-carbamoylamino-2-cyclohexylmethyloxy-1,1′-biphenyl-5-yl)propionic Acid]: in assay [1], the inhibition in vivo at 100 mg/kg turned out to be 48.1%. Besides, the “suppressive action” value in assay [2] is on record as “significant suppressive action”. With `O=C(O)CCc1ccc(OCC2CCCCC2)c(-c2ccc(O)cc2)c1` [Compound(25), 3-(2-cyclohexylmethyloxy-4′-hydroxy-1,1′-biphenyl-5-yl)propionic Acid], the inhibition in vivo at 100 mg/kg in assay [1] turned out to be 45.5%. Moreover, the “suppressive action” value in assay [2] is given as “significant suppressive action”.

Take `CCCCOc1ccc(CCCC(=O)O)cc1-c1ccccc1` [Compound(28), 4-(2-butoxy-1,1′-biphenyl-5-yl)butyric Acid]: the inhibition in vivo at 100 mg/kg in assay [1] was 44.5%. Moreover, the “suppressive action” value in assay [2] was “significant suppressive action”. As for `CC(C)COc1ccc(CCCC(=O)O)cc1-c1ccccc1` [Compound(29), 4-(2-isobutoxy-1,1′-biphenyl-5-yl)butyric Acid], the inhibition in vivo at 100 mg/kg in assay [1] came out at 55.7%.

`CCCCCOc1ccc(CCCC(=O)O)cc1-c1ccccc1` [Compound(31), 4-(2-pentyloxy-1,1′-biphenyl-5-yl)butyric Acid]: the inhibition in vivo at 100 mg/kg in assay [1] is 49.8%. `O=C(O)CCCc1ccc(OCC(=O)O)c(-c2ccccc2)c1` [Compound(44), 4-(2-carboxymethyloxy-1,1′-biphenyl-5-yl)butyric Acid]: the inhibition in vivo at 100 mg/kg in assay [1] was 71.5%. In assay [2], the “suppressive action” value is “significant suppressive action”.

Turning to `O=C(O)CCCc1ccc(OCCC(=O)O)c(-c2ccccc2)c1` [Compound(45), 4-[2-(2-carboxyethyloxy)-1,1′-biphenyl-5-yl]butyric Acid], in assay [1], the inhibition in vivo at 100 mg/kg amounted to 57%. Same read-out and setting: as for `O=C(O)CCCOc1ccc(CCCC(=O)O)cc1-c1ccccc1` [Compound(46), 4-[2-(3-carboxypropyloxy)-1,1′-biphenyl-5-yl]butyric Acid], the figure is 64.6%. Regarding `NC(=O)COc1ccc(CCCC(=O)O)cc1-c1ccccc1` [Compound(47), 4-(2-carbamoylmethyloxy-1,1′-biphenyl-5-yl)butyric Acid], in assay [1], the inhibition in vivo at 100 mg/kg came out at 65.7%. Moreover, the “suppressive action” value in assay [2] was “significant suppressive action”. With `CCCCOc1c(NC(C)=O)cc(CCCC(=O)O)cc1-c1ccccc1` [Compound(52), 4-(3-acetylamino-2-butoxy-1,1′-biphenyl-5-yl)butyric Acid], the inhibition in vivo at 100 mg/kg in assay [1] was 64.2%.

Take `CCCCOc1ccc(CCCC(N)=O)cc1-c1ccccc1` [Compound(55), 4-(2-butoxy-1,1′-biphenyl-5-yl)butyramide]: the inhibition in vivo at 100 mg/kg in assay [1] was determined as 55.7%. The “suppressive action” value in assay [2] is “significant suppressive action”. Regarding `COc1ccc(CCC(=O)O)cc1-c1ccccc1` [Control(1), 3-(2-methoxy-1,1′-biphenyl-5-yl)propionic acid, reference compound], the inhibition in vivo at 100 mg/kg in assay [1] was -14.4%. On the same count and under the same terms, under `C=CCOc1ccc(-c2cc(CCC(=O)OC)ccc2OCc2ccccc2)cc1` [Control(2), Methyl 3-(4′-allyloxy-2-benzyloxy-1,1′-biphenyl-5-yl)propionate, reference compound] stands -11.6%; under `CC1(C)CCC(C)(C)c2cc(COc3ccc(C(=O)O)cc3-c3ccccc3)ccc21` [Control(3), [2-(5,6,7,8-tetrahydro-5,5,8,8-tetramethyl-2-naphthalenyl)methyloxy-1,1′-biphenyl-5-yl]carboxylic acid, reference compound], -2.8%. On the same count and under the same terms, under `CC1(C)CCC(C)(C)c2cc(COc3cccc(CCC(=O)O)c3-c3cccc(C(=O)O)c3)ccc21` [Control(4), 3-[3′-carboxy-2-(5,6,7,8-tetrahydro-5,5,8,8-tetramethyl-2-naphthalenyl)methyloxy-1,1′-biphenyl-6-yl]propionic acid, reference compound] stands -8.4%; under `CCCCOc1ccc(CCCC(=O)NCC)cc1-c1ccccc1` [Control(5), N-ethyl-4-(2-butoxy-1,1′-biphenyl-5-yl)butyramide, reference compound], -2.5%; under `CCCCOc1ccc(-c2ccccc2)cc1CCCC(=O)O` [Control(6), 4-(4-butoxy-1,1′-biphenyl-3-yl)butyric acid, reference compound], 7.3%.

The record behind these values is patent US6376546B1, “Biphenyl-5-alkanoic acid derivatives and use thereof” (Asahi Kasei Kabushiki Kaisha, priority 1997, dated 2002).
